Laboratory results taken from US7550467B2 (Schering Corporation, priority 2004, dated 2009).

Biological target: T1, MCH receptor (Homo sapiens, UniProt Q99705)
T1 construct: expressed in transfected cells; host or cells: CHO cells
Test: MCH Receptor Binding Assay ([125I]-MCH, SPA beads, membranes from CHO cells expressing the MCH receptor)
Method: MCH Receptor Binding Assay:
Membranes from CHO cells expressing the MCH receptor were prepared by lysing cells with 5 mM HEPES for 15 minutes at 4° C. Cell lysates were centrifuged ([…], 15 minutes) and the pellet was resuspended in 5 mM HEPES. For each 96-well plate (Microlite, Dynex Technologies), 1 mg of cell membranes were incubated with 10 mg of wheat germ agglutinin SPA beads (Amersham) for 5 minutes at 4° C. in a volume of 10 ml of binding buffer (25 mM HEPES, 10 mM MGCl2, 10 mM NaCl, 5 mM MnCl2, 0.1% BSA). The membrane/bead mixture was centrifuged (1500×g, 3.5 min), the supernatant was aspirated, and the pellet was resuspended in 10 ml binding buffer. The centrifugation, aspiration and resuspension were then repeated. The membrane/bead mixture (100 μl) was then added to 96-well plates containing 50 μl of 500 pM [^125I]-MCH (NEN) and […] of the appropriate concentration of compound (4X the desired final concentration). Nonspecific binding was determined by including 1 μM MCH in the binding reaction. The binding reaction was incubated at room temperature for 2 hours. Plates were then analyzed in a TOPCOUNT microplate scintillation counter (Packard). Data was analyzed and Ki values were determined using GraphPad Prism.

T1 sequence (Q99705 whole entry): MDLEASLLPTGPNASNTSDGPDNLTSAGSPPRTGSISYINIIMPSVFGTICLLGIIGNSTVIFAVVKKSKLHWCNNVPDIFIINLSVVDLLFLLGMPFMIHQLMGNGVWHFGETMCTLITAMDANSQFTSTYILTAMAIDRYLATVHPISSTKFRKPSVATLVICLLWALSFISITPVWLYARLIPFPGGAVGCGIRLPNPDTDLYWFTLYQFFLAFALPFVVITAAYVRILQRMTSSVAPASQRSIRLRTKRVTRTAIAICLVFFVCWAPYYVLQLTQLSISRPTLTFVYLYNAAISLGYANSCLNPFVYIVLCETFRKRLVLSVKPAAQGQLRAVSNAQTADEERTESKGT

In the case of CN1CCN(CCCN(C(=O)Nc2ccc(F)c(C(F)(F)F)c2)C2CCc3ccc(S(=O)(=O)N(C)C)cc3C2)CC1 (centres unmarked) [Compound XXXI, 7-{3-(4-fluoro-3-trifluoromethyl-phenyl)-1-[3-(4-methyl-piperazin-1-yl)-propyl]-ureido}-5,6,7,8-tetrahydro-naphthalene-2-sulfonic acid dimethylamide], the Ki (Ki rating (class)) is reported as > 2000 nM.
With CN1CCN(CCCN(C(=O)Nc2ccc(F)c(Cl)c2)C2CCc3ccc(C#N)cc3C2)CC1 (centres unmarked) [Compound III, 3-(3-chloro-4-fluoro-phenyl)-1-(7-cyano-1,2,3,4-tetrahydro-naphthalen-2-yl)-1-[3-(4-methyl-piperazin-1-yl)-propyl]-urea] the Ki (Ki rating (class)) was < 1000 nM and the Ki ([125I]-MCH) was 14 nM.
In the case of CN1CCN(CCCN(C(=O)Nc2ccc(F)c(Cl)c2)C2Cc3ccccc3C2)CC1 [Compound XIX, 3-(3-chloro-4-fluoro-phenyl)-1-indan-2-yl-1-[3-(4-methyl-piperazin-1-yl)-propyl]-urea], the Ki (Ki rating (class)) is reported as < 1000 nM.
CN1CCN(CCCN(C(=O)Nc2ccc(F)c(Cl)c2)C2CCc3cc(C#N)ccc3C2)CC1 (centres unmarked) [Compound XVI, 3-(3-chloro-4-fluoro-phenyl)-1-(6-cyano-1,2,3,4-tetrahydro-naphthalen-2-yl)-1-[3-(4-methyl-piperazin-1-yl)-propyl]-urea] was tested, and the Ki (Ki rating (class)) was < 1000 nM.
For COc1ccc2c(c1)CCC(N(CCCN1CCN(C)CC1)C(=O)Nc1ccc(F)c(Cl)c1)C2 (centres unmarked) [Compound XII, 3-(3-chloro-4-fluoro-phenyl)-1-(6-methoxy-1,2,3,4-tetrahydro-naphthalen-2-yl)-1-[3-(4-methyl-piperazin-1-yl)-propyl]-urea], the Ki (Ki rating (class)) was < 1000 nM.
CN1CCN(CCCN(C(=O)Nc2ccc(F)c(Cl)c2)C2CCc3ccc([N+](=O)[O-])cc3C2)CC1 (centres unmarked) [Compound II, 3-(3-chloro-4-fluoro-phenyl)-1-[3-(4-methyl-piperazin-1-yl)-propyl]-1-(7-nitro-1,2,3,4-tetrahydro-naphthalen-2-yl)-urea] was tested, and the Ki (Ki rating (class)) was < 1000 nM and the Ki ([125I]-MCH) was 11 nM.
For CN1CCN(CCCN(C(=O)Nc2ccc(F)c(Cl)c2)C2CCc3ccc(S(C)(=O)=O)cc3C2)CC1 (centres unmarked), the Ki (Ki rating (class)) was 1000 to 2000 nM.
C[C@@H]1CN(C(=O)OC(C)(C)C)[C@@H](C)CN1CCCN(C(=O)Nc1cc(Cl)nc(Cl)c1)C1COc2ccc(Br)cc2C1 (some centres unmarked) [Compound XV] was tested, and the Ki (Ki rating (class)) was < 1000 nM.
With CN1CCN(CCCN(C(=O)Nc2cc(Cl)nc(Cl)c2)C2CCc3cc(C#N)ccc3C2)CC1 (centres unmarked) [Compound VI, 3-(2,6-dichloro-pyridin-4-yl)-1-(6-cyano-1,2,3,4-tetrahydro-naphthalen-2-yl)-1-[3-(4-methyl-piperazin-1-yl)-propyl]-urea] the Ki (Ki rating (class)) was < 1000 nM and the Ki ([125I]-MCH) was 65 nM.
C[C@@H]1CN(CCCN(C(=O)Nc2cc(Cl)nc(Cl)c2)C2COc3ccc(Br)cc3C2)[C@@H](C)CN1 (some centres unmarked) [Compound XI] was tested, and the Ki (Ki rating (class)) was < 1000 nM.
In the case of C[C@@H]1CN(CCCN(C(=O)Nc2ccc(F)c(Cl)c2)C2COc3ccc(Br)cc3C2)[C@@H](C)CN1 (some centres unmarked) [Compound XXI], the Ki (Ki rating (class)) is reported as < 1000 nM.
In the case of CN1CCN(CCCN(C(=O)Nc2ccc(F)c(Cl)c2)C2CCc3ccc(NS(C)(=O)=O)cc3C2)CC1 (centres unmarked) [Compound VIII, N-(7-{3-(3-chloro-4-fluoro-phenyl)-1-[3-(4-methyl-piperazin-1-yl)-propyl]-ureido}-5,6,7,8-tetrahydro-naphthalen-2-yl)-methanesulfonamide], the Ki (Ki rating (class)) is reported as < 1000 nM and the Ki ([125I]-MCH) is reported as 96 nM.
In the case of CN1CCN(CCCN(C(=O)Nc2ccc(F)c(Cl)c2)C2CCc3ccc(N)cc3C2)CC1 (centres unmarked), the Ki (Ki rating (class)) is reported as < 1000 nM.
In the case of COc1ccc2c(c1)CC(N(CCCN1CCN(C)CC1)C(=O)Nc1ccc(F)c(Cl)c1)CC2 (centres unmarked) [Compound VII, 3-(3-chloro-4-fluoro-phenyl)-1-(7-methoxy-1,2,3,4-tetrahydro-naphthalen-2-yl)-1-[3-(4-methyl-piperazin-1-yl)-propyl]-urea], the Ki (Ki rating (class)) is reported as < 1000 nM and the Ki ([125I]-MCH) is reported as 92 nM.
CNS(=O)(=O)c1ccc2c(c1)CC(N(CCCN1CCN(C)CC1)C(=O)Nc1cc(Cl)nc(Cl)c1)CC2 (centres unmarked) [Compound XXII, 7-{3-(2,6-dichloro-pyridin-4-yl)-1-[3-(4-methyl-piperazin-1-yl)-propyl]-ureido}-5,6,7,8-tetrahydro-naphthalene-2-sulfonic acid methylamide] was tested, and the Ki (Ki rating (class)) was < 1000 nM.
Work on C[C@@H]1CN(C(=O)OC(C)(C)C)[C@@H](C)CN1CCCN(C(=O)Nc1ccc(F)c(Cl)c1)C1COc2ccc(Br)cc2C1 (stereo partly drawn) [Compound XXV, (2S,5R)-4-{3-[1-(6-bromo-chroman-3-yl)-3-(3-chloro-4-fluoro-phenyl)-ureido]-propyl}-2,5-dimethyl-piperazine-1-carboxylic acid tert-butyl ester] yielded a Ki (Ki rating (class)) of 1000 to 2000 nM.
Compound C[C@@H]1CN(CCCN(C(=O)Nc2cc(Cl)nc(Cl)c2)C2COc3ccc(Br)cc3C2)[C@@H](C)CN1C(=O)OC(C)(C)C (some centres unmarked) [XXIII] has a Ki (Ki rating (class)) of 1000 to 2000 nM.
For CC(C)C(=O)Nc1ccc2c(c1)CC(N(CCCN1CCN(C)CC1)C(=O)Nc1ccc(F)c(Cl)c1)CC2 (centres unmarked) [Compound IV, N-(7-{3-(3-chloro-4-fluoro-phenyl)-1-[3-(4-methyl-piperazin-1-yl)-propyl]-ureido}-5,6,7,8-tetrahydro-naphthalen-2-yl)-isobuty ramide], the Ki (Ki rating (class)) was < 1000 nM and the Ki ([125I]-MCH) was 61 nM.
CNS(=O)(=O)c1ccc2c(c1)CC(N(CCCN1CCN(C)CC1)C(=O)Nc1ccc(F)c(C(F)(F)F)c1)CC2 (centres unmarked) [Compound XXVII, 7-{3-(4-fluoro-3-trifluoromethyl-phenyl)-1-[3-(4-methyl-piperazin-1-yl)-propyl]-ureido}-5,6,7,8-tetrahydro-naphthalene-2-sulfonic acid methylamide] was tested, and the Ki (Ki rating (class)) was 1000 to 2000 nM.
For CN1CCN(CCCN(C(=O)Nc2ccc(F)c(Cl)c2)C2CCc3cc(Br)ccc3C2)CC1 (centres unmarked) [Compound X, 1-(6-bromo-1,2,3,4-tetrahydro-naphthalen-2-yl)-3-(3-chloro-4-fluoro-phenyl)-1-[3-(4-methyl-piperazin-1-yl)-propyl]-urea], the Ki (Ki rating (class)) was < 1000 nM and the Ki ([125I]-MCH) was 178 nM.
For C[C@@H]1CN[C@@H](C)CN1CCCN(C(=O)Nc1ccc(F)c(Cl)c1)C1COc2ccc(Br)cc2C1 (stereo partly drawn) [Compound XVIII, (2R,5S)-1-(6-bromo-chroman-3-yl)-3-(3-chloro-4-fluoro-phenyl)-1-[3-(2,5-dimethyi-piperazin-1-yl)-propyl]-urea], the Ki (Ki rating (class)) was < 1000 nM.
CCNC(=O)Nc1ccc2c(c1)CC(N(CCCN1CCN(C)CC1)C(=O)Nc1ccc(F)c(Cl)c1)CC2 (centres unmarked) [Compound IX, 1-(7-{3-(3-chloro-4-fluoro-phenyl)-1-[3-(4-methyl-piperazin-1-yl)-propyl]-ureido}-5,6,7,8-tetrahydro-naphthalen-2-yl)-3-ethyl-urea] was tested, and the Ki (Ki rating (class)) was < 1000 nM and the Ki ([125I]-MCH) was 157 nM.
Work on C[C@@H]1CN(CCCN(C(=O)Nc2ccc(F)c(Cl)c2)C2COc3ccc(Br)cc3C2)[C@@H](C)CN1C(=O)OC(C)(C)C (some centres unmarked) [Compound XXVI] yielded a Ki (Ki rating (class)) of 1000 to 2000 nM.
For CN1CCN(CCCN(C(=O)Nc2ccc(F)c(Cl)c2)C2CCc3ccccc3C2)CC1 (centres unmarked) [Compound XVII, 3-(3-chloro-4-fluoro-phenyl)-1-[3-(4-methyl-piperazin-1-yl)-propyl]-1-(1,2,3,4-tetrahydro-naphthalen-2-yl)-urea], the Ki (Ki rating (class)) was < 1000 nM.
In the case of C[C@@H]1CN[C@@H](C)CN1CCCN(C(=O)Nc1cc(Cl)nc(Cl)c1)C1COc2ccc(Br)cc2C1 (some centres unmarked) [Compound V], the Ki (Ki rating (class)) is reported as < 1000 nM and the Ki ([125I]-MCH) is reported as 63 nM.
In the case of CN1CCN(CCCN(C(=O)Nc2cc(Cl)nc(Cl)c2)C2CCc3ccc(S(C)(=O)=O)cc3C2)CC1 (centres unmarked) [Compound XIII, 3-(2,6-dichloro-pyridin-4-yl)-1-(7-methanesulfonyl-1,2,3,4-tetrahydro-naphthalen-2-yl)-1-[3-(4-methyl-piperazin-1-yl)-propyl]-urea], the Ki (Ki rating (class)) is reported as < 1000 nM.
In the case of CN1CCN(CCCN(C(=O)Nc2cc(Cl)nc(Cl)c2)C2CCc3ccc(S(=O)(=O)N(C)C)cc3C2)CC1 (centres unmarked) [Compound XXXII], the Ki (Ki rating (class)) is reported as > 2000 nM.
In the case of CN1CCN(CCCN(C(=O)Nc2ccc(F)c(Cl)c2)C2CCc3ccc(S(=O)(=O)N(C)C)cc3C2)CC1 (centres unmarked) [Compound XXX, 7-{3-(3-chloro-4-fluoro-phenyl)-1-[3-(4-methyl-piperazin-1-yl).-propyl]-ureido}-5,6,7,8-tetrahydro-naphthalene-2-sulfonic acid dimethylamide], the Ki (Ki rating (class)) is reported as > 2000 nM.
In the case of COc1cc2c(cc1OC)CC(N(CCCN1CCN(C)CC1)C(=O)Nc1cc(Cl)nc(Cl)c1)CC2 (centres unmarked) [Compound XX, 3-(2,6-dichloro-pyridin-4-yl)-1-(6,7-dimethoxy-1,2,3,4-tetrahydro-naphthalen-2-yl)-1-[3-(4-methyl-piperazin-1-yl)-propyl]-urea], the Ki (Ki rating (class)) is reported as < 1000 nM.
For COc1cc2c(cc1OC)CC(N(CCCN1CCN(C)CC1)C(=O)Nc1ccc(F)c(Cl)c1)CC2 (centres unmarked) [Compound XXVIII, 3-(3-chloro-4-fluoro-phenyl)-1-(6,7-dimethoxy-1,2,3,4-tetrahydro-naphthalen-2-yl)-1-[3-(4-methyl-piperazin-1-yl)-propyl]-urea], the Ki (Ki rating (class)) was > 2000 nM.
In the case of CC(=O)Nc1ccc2c(c1)CC(N(CCCN1CCN(C)CC1)C(=O)Nc1ccc(F)c(Cl)c1)CC2 (centres unmarked) [Compound I, N-(7-{3-(3-chloro-4-fluoro-phenyl)-1-[3-(4methyl-piperazin-1-yl)-propyl]-ureido}-5,6,7,8-tetrahydro-naphthalen-2yl)-acetamide], the Ki (Ki rating (class)) is reported as < 1000 nM and the Ki ([125I]-MCH) is reported as 6 nM.
